Earlier results as cited in patent US20050154022A1, “4-aryl piperidines” (H. Lundbeck A/S, priority 2004, published 2005).

Key:
Conditions in all cases: see Borowsky et al. (2002)
guinea pig = system: guinea pig
rat [1] = system: rat
rat [2] = system: rat; remark: listed apart in the source

Structure (SMILES): COCC1=C(C(=O)OC)[C@H](c2ccc(F)c(F)c2)N(C(=O)NCCCN2CCC(c3cccc(NC(C)=O)c3)CC2)C(=O)N1 [SNAP-7941]
- effect in guinea pig maternal-separation vocalization test (animal model of depression/anxiety) (guinea pig): effects similar to clinically used antidepressants and anxiolytics
- effect in rat forced-swim test (animal model of depression/anxiety) (rat [1]): effects similar to clinically used antidepressants and anxiolytics
- effect in rat social interaction test (animal model of depression/anxiety) (rat [2]): effects similar to clinically used antidepressants and anxiolytics
